In patent US9023844B2, “Heterocyclylpyri (mi) dinylpyrazole as fungicidals” (Bayer Intellectual Property GmbH, priority 2011, dated 2015) one finds LogP and chromatographic logP data, which are given here for 50 molecules.

One series can be described thus: Determination of log P values by HPLC on a reverse phase column (C18), EEC-Directive 79/831 Annex V.A8 (Methods A, B, C). In kind it is physicochemical. The conditions noted are these: Method B (HPLC, reverse phase C18). The protocol: (§1) Note on the determination of the log P values and mass detection: The stated log P values were determined in accordance with EEC-Directive 79/831 Annex V.A8 by HPLC (High Performance Liquid Chromatography) on a reverse phase column (C18). Agilent 1100 LC system; 50*4.6 Zorbax Eclipse Plus C18 1.8 micron; eluent A: acetonitrile (0.1% formic acid); eluent B: water (0.09% formic acid); linear gradient from 10% acetonitrile to 95% acetonitrile in 4.25 mins, then 95% acetonitrile for a further 1.25 mins; oven temperature 55° C.; flow rate: 2.0 mL/min. The mass detection was effected with an Agilend MSD system.
as §1, with “HP1100;” for “Agilent 1100 LC system;”, “(0.08%” for “(0.09%”, “5%” for “10%”, “1.70 min,” for “4.25 mins,”, “1.00 min;” for “1.25 mins;”, “the Micronass ZQ2000 mass detector from Waters.” for “an Agilend MSD system.”
Note on the determination of the log P values and mass detection: The stated log P values were determined in accordance with EEC-Directive 79/831 Annex V.A8 by UPLC (Ultra Performance Liquid Chromatography) on a reverse phase column (C18). HP1100; 50*2.1 Zorbax Eclipse Plus C18 1.8 micron; eluent A: acetonitrile (0.09% formic acid); eluent B: water (0.1% formic acid); linear gradient from 10% A to 95% A in 3.25 min; oven temperature 40° C.; flow rate: 0.8 mL/min. The mass detection was effected with the LCT Premier or SQD mass detector from Waters.
The term LogP denotes a log measure of how a compound divides between an organic and an aqueous phase. Take `O=C(Nc1cc(-c2c(-c3ccc(F)cc3F)nn3c2OCCC3)ccn1)C1(Cl)CC1` [Example 50]: the log partition coefficient (LogP) came to 2.84.
The same measure, in the same setting: the value for `CCCC(CCC)C(=O)Nc1cc(-c2c(-c3ccc(F)cc3)nn3c2OCCC3)ccn1` [Example 67] was 2.64.
`O=C(Nc1cc(-c2c(-c3ccc(F)cc3)nn3c2OCCC3)ccn1)c1c(F)cccc1F` [Example 71] displayed a lipophilicity (LogP) of 2.43.
In turn, `CC1(C(=O)Nc2cc(-c3c(-c4ccc(F)cc4)nn4c3OCCC4)ccn2)CC1` [Example 98] showed a lipophilicity (LogP) of 1.79.
Regarding `CC(=O)CCCC(=O)Nc1cc(-c2c(-c3ccc(F)cc3)nn3c2OCCC3)ccn1` [Example 99], the lipophilicity (LogP) is 1.35.
In turn, `O=C1CCC(C(=O)Nc2cc(-c3c(-c4ccc(F)cc4)nn4c3OCCC4)ccn2)C1` (centres unmarked) [Example 112] came in with a LogP of 1.38.
In turn, `O=C(Nc1cc(-c2c(-c3ccc(F)cc3)nn3c2OCCC3)ccn1)c1cncc(F)c1` [Example 114] had a LogP of 1.96.
The molecule `CC(C)(F)C(=O)Nc1cc(-c2c(-c3ccc(F)cc3)nn3c2OCCC3)ccn1` [Example 115] returned a LogP of 2.38.
Molecule `O=C(Nc1cc(-c2c(-c3ccc(F)cc3)nn3c2OCCC3)ccn1)C1CC1(F)Cl` (centres unmarked) [Example 116] yielded a LogP of 2.13.
On to `CC1(C(=O)Nc2cc(-c3c(-c4ccc(F)cc4)nn4c3OCCC4)ccn2)CCCC1` [Example 117], for which the LogP was 2.23.
The same measure, in the same setting: then `CC1(C(=O)Nc2cc(-c3c(-c4ccc(F)cc4)nn4c3OCCC4)ccn2)COCOC1` [Example 118], with 1.86; and `CCC1(C(=O)Nc2cc(-c3c(-c4ccc(F)cc4)nn4c3OCCC4)ccn2)COC1` [Example 119], with 1.56.
`N#CC1(C(=O)Nc2cc(-c3c(-c4ccc(F)cc4)nn4c3OCCC4)ccn2)CC1` [Example 120] had a log partition coefficient (LogP) of 2.13.
`CC1(C(=O)Nc2cc(-c3c(-c4ccc(F)cc4)nn4c3OCCC4)ccn2)CC=CCC1` (centres unmarked) [Example 121] yielded a LogP of 2.38.
For `CC(C)=NOCC(=O)Nc1cc(-c2c(-c3ccc(F)cc3)nn3c2OCCC3)ccn1` [Example 122], the log partition coefficient (LogP) is reported as 2.13.
For the molecule `O=C(Cn1cccn1)Nc1cc(-c2c(-c3ccc(F)cc3)nn3c2OCCC3)ccn1` [Example 123], the lipophilicity (LogP) was found to be 1.63.
Molecule `O=C(CC1CCCOC1)Nc1cc(-c2c(-c3ccc(F)cc3)nn3c2OCCC3)ccn1` (centres unmarked) [Example 124] gave a LogP of 1.57.
Still for that read-out and setting: then `O=C(Nc1cc(-c2c(-c3ccc(F)cc3)nn3c2OCCC3)ccn1)C1CC=CC1` [Example 125], with 1.76; and `Cc1occc1C(=O)Nc1cc(-c2c(-c3ccc(F)cc3)nn3c2OCCC3)ccn1` [Example 126], with 1.96.
Molecule `CCC(C)CC(C)C(=O)Nc1cc(-c2c(-c3ccc(F)cc3)nn3c2OCCC3)ccn1` (centres unmarked) [Example 127] registered a lipophilicity (LogP) of 2.65.
On to `O=C(Nc1cc(-c2c(-c3ccc(F)cc3)nn3c2OCCC3)ccn1)C1CCSCC1` [Example 128], for which the LogP stood at 1.83.
`O=C(Nc1cc(-c2c(-c3ccc(F)cc3)nn3c2OCCC3)ccn1)C1(C2CC2)CC1` [Example 129] yielded a lipophilicity (LogP) of 2.46.
On the same count and under the same terms, the value for `O=C(Nc1cc(-c2c(-c3ccc(F)cc3)nn3c2OCCC3)ccn1)c1ccc(F)s1` [Example 130] was 2.42.
Molecule `CC[C@H](C)CC(=O)Nc1cc(-c2c(-c3ccc(F)cc3)nn3c2OCCC3)ccn1` [Example 131] displayed a log partition coefficient (LogP) of 2.1.
Same read-out and setting: the value for `O=C(CCn1ccnn1)Nc1cc(-c2c(-c3ccc(F)cc3)nn3c2OCCC3)ccn1` [Example 133] was 1.23; that for `Cc1cc(C(=O)Nc2cc(-c3c(-c4ccc(F)cc4)nn4c3OCCC4)ccn2)no1` [Example 134] was 2.53.
`Cc1noc(C)c1C(=O)Nc1cc(-c2c(-c3ccc(F)cc3)nn3c2OCCC3)ccn1` [Example 135] showed a LogP of 2.06.
Consider `CC(C)=NOC(C)C(=O)Nc1cc(-c2c(-c3ccc(F)cc3)nn3c2OCCC3)ccn1` (centres unmarked) [Example 136], for which the log partition coefficient (LogP) is on record as 2.34.
Same read-out and setting: the value for `O=C(Cn1cncn1)Nc1cc(-c2c(-c3ccc(F)cc3)nn3c2OCCC3)ccn1` [Example 137] was 1.32; that for `CC(C)[C@H](NC=O)C(=O)Nc1cc(-c2c(-c3ccc(F)cc3)nn3c2OCCC3)ccn1` [Example 138] was 1.6.
Regarding `O=C(CC1=CCCCC1)Nc1cc(-c2c(-c3ccc(F)cc3)nn3c2OCCC3)ccn1` [Example 139], the LogP amounted to 2.46.

The same series, now with this note: Method C (HPLC, reverse phase C18).
Take `CCC(=O)Nc1cc(-c2c(-c3ccccc3)nn3c2N(C(=O)CC)CCC3)ccn1` [Example 78]: the LogP is reported as 1.45.
`C[Si]1(C)COc2c(-c3ccnc(NC(=O)C4CC4)c3)c(-c3cccs3)nn2C1` [Example 87]: the LogP is 2.08.
`CCC(=O)N1CCCn2nc(-c3ccc(F)cc3)c(-c3ccnc(N(C(C)=O)C(=O)CC)c3)c21` [Example 90]: the LogP worked out at 2.39.
`CCC(=O)Nc1cc(-c2c(-c3ccc(F)cc3)nn3c2N(C(=O)CC)CCC3)ccn1` [Example 91] registered a lipophilicity (LogP) of 1.62.
Turning to `CCC(=O)N(C)c1cc(-c2c(-c3ccc(F)cc3)nn3c2N(C(=O)CC)CCC3)ccn1` [Example 93], the LogP came to 2.05.
On to `CC(=O)Nc1cc(-c2c(-c3ccc(F)cc3)nn3c2N(C(C)=O)CCC3)ccn1` [Example 94], for which the LogP turned out to be 1.26.
The same measure, in the same setting: then `CCN1CCCn2nc(-c3ccc(F)cc3)c(-c3ccnc(NCc4ccccc4)c3)c21` [Example 97], with 1.86.
`CC(C)C(=O)Nc1cc(-c2c(-c3ccc(F)cc3)nn3c2OCC(C)(C#N)C3)ccn1` (centres unmarked) [Example 107] showed a LogP of 1.94.
With `CC1(C)COc2c(-c3ccnc(NC(=O)C4CC4)c3)c(-c3ccc(F)cc3)nn2C1` [Example 108], the log partition coefficient (LogP) turned out to be 2.08.
For `CC(=O)Nc1cc(-c2c(-c3ccc(F)cc3)nn3c2OCC(C)(C)C3)ccn1` [Example 109], the LogP was 1.75.
In turn, `CCC(=O)Nc1cc(-c2c(-c3ccc(F)cc3)nn3c2OCC(C)(C)C3)ccn1` [Example 110] registered a lipophilicity (LogP) of 2.00.
As for `CC(C)C(=O)Nc1cc(-c2c(-c3ccc(F)cc3)nn3c2OCC(C)(C)C3)ccn1` [Example 111], the LogP is recorded as 2.23.

Staying with this series, now noted: reverse phase C18 HPLC column, Method B (HPLC, reverse phase C18); read-out: LogP.
For the molecule `CC(F)C(=O)Nc1cc(-c2c(-c3ccc(F)cc3)nn3c2OCCC3)ccn1` (centres unmarked) [Example 113, 2-fluoro-N-{4-[2-(4-fluorophenyl)-6,7-dihydro-5H-pyrazolo[5,1-b][1,3]oxazin-3-yl]pyridin-2-yl}propanamide], the chromatographic logP is 2.

Staying with this series, now noted: reverse phase C18 HPLC column, Method C (HPLC, reverse phase C18); read-out: LogP.
Regarding `CC(=O)N1CCCn2nc(-c3ccccc3)c(-c3ccnc(N(C(C)=O)C(C)=O)c3)c21` [Example 58, N-acetyl-N-[4-(4-acetyl-2-phenyl-4,5,6,7-tetrahydropyrazolo[1,5-a]pyrimidin-3-yl)pyridin-2-yl]acetamide], the chromatographic logP was found to be 1.72.
For the molecule `CC(=O)Nc1cc(-c2c(-c3ccc(F)cc3)nn3cccnc23)ccn1` [Example 60, N-{4-[2-(4-Fluorophenyl)pyrazolo[1,5-a]pyrimidin-3-yl]pyridin-2-yl}acetamide], the chromatographic logP is 1.47.

Still in this series, the particulars now being: reverse phase C18 HPLC column, pH 2.3, intermediates of formula [II]; HPLC, reverse phase C18; read-out: LogP (pH 2.3).
Turning to `Nc1cc(-c2c(-c3ccccc3)nn3c2OCCC3)ccn1` [[II-1], 4-(2-phenyl-6,7-dihydro-5H-pyrazolo[5,1-b][1,3]oxazin-3-yl)pyridin-2-amine], the chromatographic logP was 0.87.

Still in this series, the particulars now being: reverse phase C18 HPLC column, pH 2.3, intermediates of formula [IV] and [XXXVII]; HPLC, reverse phase C18; read-out: LogP (pH 2.3).
On to `C[C@@H]1C[C@@H](C)n2nc(-c3ccc(F)cc3)c(Br)c2O1` (racemic) [[IV-9a], rac-trans-3-bromo-2-(4-fluorophenyl)-5,7-dimethyl-6,7-dihydro-5H-pyrazolo[5,1-b][1,3]oxazine], for which the chromatographic logP turned out to be 3.91.
Take `C[C@@H]1C[C@H](C)n2nc(-c3ccc(F)cc3)c(Br)c2O1` (racemic) [[IV-9b], rac-cis-3-bromo-2-(4-fluorophenyl)-5,7-dimethyl-6,7-dihydro-5H-pyrazolo[5,1-b][1,3]oxazine]: the chromatographic logP came to 3.68.

Staying with this series, now noted: reverse phase C18 HPLC column, pH 2.7, values in the synthesis examples; HPLC, reverse phase C18; read-out: log P (pH 2.7).
As to `C[C@@H]1C[C@@H](C)n2nc(-c3ccc(F)cc3)c(Br)c2O1` (racemic) [[IV-9a], rac-trans-3-bromo-2-(4-fluorophenyl)-5,7-dimethyl-6,7-dihydro-5H-pyrazolo[5,1-b][1,3]oxazine], the chromatographic logP amounted to 3.91.
Take `C[C@@H]1C[C@H](C)n2nc(-c3ccc(F)cc3)c(Br)c2O1` (racemic) [[IV-9b], rac-cis-3-bromo-2-(4-fluorophenyl)-5,7-dimethyl-6,7-dihydro-5H-pyrazolo[5,1-b][1,3]oxazine]: the chromatographic logP worked out at 3.68.
Take `CC(=O)N1CCCn2nc(-c3ccccc3)c(-c3ccnc(N(C(C)=O)C(C)=O)c3)c21` [Example 58, N-acetyl-N-[4-(4-acetyl-2-phenyl-4,5,6,7-tetrahydropyrazolo[1,5-a]pyrimidin-3-yl)pyridin-2-yl]acetamide]: the chromatographic logP is 1.72.
For `CC(=O)Nc1cc(-c2c(-c3ccc(F)cc3)nn3cccnc23)ccn1` [Example 60, N-{4-[2-(4-Fluorophenyl)pyrazolo[1,5-a]pyrimidin-3-yl]pyridin-2-yl}acetamide], the chromatographic logP turned out to be 1.47.
`CC(F)C(=O)Nc1cc(-c2c(-c3ccc(F)cc3)nn3c2OCCC3)ccn1` (centres unmarked) [Example 113, 2-fluoro-N-{4-[2-(4-fluorophenyl)-6,7-dihydro-5H-pyrazolo[5,1-b][1,3]oxazin-3-yl]pyridin-2-yl}propanamide]: the chromatographic logP worked out at 2.
For `CC(C)(C)OC(=O)Nc1cc(-c2c(-c3ccccc3)nn3cccnc23)ccn1` [[I-i-2], tert-butyl [4-(2-phenylpyrazolo[1,5-a]pyrimidin-3-yl)pyridin-2-yl]carbamate], the chromatographic logP was 2.32.
On to `Nc1cc(-c2c(-c3ccccc3)nn3c2OCCC3)ccn1` [[II-1], 4-(2-phenyl-6,7-dihydro-5H-pyrazolo[5,1-b][1,3]oxazin-3-yl)pyridin-2-amine], for which the chromatographic logP came to 0.87.
